Earlier results in US20130317456A1, “Transdermal Delivery Systems” (Durect Corporation, priority 2006, published 2013).

Conditions: octanol/water partition coefficient

Row | log P | Structure (SMILES)
1 | around 1.95 | Cc1cccc(C)c1NC(=O)C1CCCCN1C (centres unmarked) [Mepivacaine]
2 | around 2.9 | CCCN1CCCC[C@H]1C(=O)Nc1c(C)cccc1C [Ropivacaine]
